Results published in US20190069552A1, “METHOD TO CONTROL PYRIMETHANIL TOLERANT FUNGI” (Janssen Pharmaceutica NV, priority 2016, published 2019).

How the values were obtained:
[1] = test system: Penicillium expansum strain PE110048, pyrimethanil-resistant; assay: Poison plate assay on glucose agar, strain PE110048; type: cell-based
Experimental: (§1) • Name of component (I): pyrimethanil • Name of component (II): hexanoic acid (=CH3—(CH2)n—COOH wherein n is 4) • Test setup: to each well of a 24-well microtiter plate, 2 ml of Glucose Agar (GA: 10 g glucose, 1.5 g K2HPO4, 2 g KH2PO4, 1 g (NH4)2SO4, 0.5 g MgSO4 and 12.5 g agar in 1 litre deionised water) is added. The test compounds pyrimethanil as well as an alkane carboxylic acid (II) are dissolved in DMSO at the appropriate concentration and added to the liquid agar in a 5 μl droplet each. The nutrient medium is inoculated with the test fungi by adding 2.5 µl of a spore/mycelium suspension. The microwell plates are then incubated in the dark at 20° C. and 60% relative humidity. The growth of the fungi is evaluated after two weeks, when the growth diameter of untreated controls has reached 15 mm.
(§2) After a suitable incubation period, colony diameters on the agar are measured. Percentage growth (not % effect, see below) is then calculated for each treatment by comparing the colony diameter with the diameter for untreated controls (which is 15 mm).
(§3) The effect of adding an alkane carboxylic acid of formula CH3—(CH2)n—COOH (wherein n is 4 to 7) to restore sensitivity of pyrimethanil-resistant or pyrimethanil-tolerant fungi to pyrimethanil was calculated using the Colby synergy formula (Colby S. R., Weeds (1967), 15(1), 20-22).
(§4) When a is the % growth (not the % activity) still observed under treatment with compound A alone at a given concentration and b is the % growth still observed under treatment with compound B alone at a given concentration, the expected growth exp under treatment with the combination of both compounds at the same concentrations is:
(§5) When the observed growth of the test pathogens under the combination is less than the expected growth, there is synergy.

[2] = test system: Penicillium expansum PE110091 (pyrimethanil-tolerant); assay: Treatment of fruit (curative dip, Bio-apple Elstar); type: in vivo; settings: for % effect after 6 days (observed) / % effect after 9 days (observed): apple Elstar, curative
Experimental: untreated apples or pears (details below), inoculated with fungal pathogens by wounding the fruits with a contaminated pricker on two spots, and incubated at 20° C. and 96% relative humidity.
Curative: fruits are first infected with a pricker and treated by dipping four hours later.
After a suitable incubation period, the diameters of the infected spots are measured with a calliper. The average diameter is calculated for all spots in the same treatment (between 14 and 40 spots per treatment, see below). Percentage effect of the treatment is then calculated by comparing the average spot diameter with the average for untreated controls.
The effect of adding an alkane carboxylic acid of formula CH3—(CH2)n—COOH (wherein n is 4 to 7) to restore sensitivity of pyrimethanil-resistant or pyrimethanil-tolerant fungi to pyrimethanil was calculated using the Limpel synergy formula (Limpel, L. E. et al. (1962) “Weed control by dimethyl tetrachloroterephthalate alone and in certain combinations”, Proceedings of the N. E. Weed Control Conference 16: 48-53). When a is the % effect obtained by compound A alone at a given concentration and b is the % effect obtained by compound B alone at a given concentration, the expected effect e of the combination of both compounds at the same concentrations is:
Pyrimethanil was added to tap water as a 40% commercially available PENBOTEC 400SC formulation to obtain a concentration of 100 ppm pyrimethanil. The alkanoic acid was added to tap water to obtain a 2000 ppm solution, or the alkanoic acid was added to the pyrimethanil composition with a concentration of 2000 ppm.
Fruit: Bio-apple “Elstar”
Pathogen: Penicillium expansum PE110091 (pyrimethanil-tolerant)
Repeats: Two wounds per fruit, 15 fruits per treatment
Evaluations: 17 March (6 days), 20 March (9 days) Average rot diameter untreated: 6 days: 21.3 mm 9 days: 36.0 mm

[3] = test system: Penicillium expansum strain PE110014, pyrimethanil-resistant; assay: Poison plate assay on glucose agar, strain PE110014; type: cell-based
Experimental: as §1, §2, §3, §4, §5

[4] = test system: Penicillium expansum strain PE110030, pyrimethanil-resistant; assay: Poison plate assay on glucose agar, strain PE110030; type: cell-based
Experimental: as §1, §2, §3, §4, §5

[5] = test system: Penicillium expansum PE110101; assay: Pyrimethanil sensitivity of strain PE110101; type: cell-based; settings: strain PE110101, pyrimethanil-sensitive
[6] = test system: Penicillium expansum PE110091; assay: Pyrimethanil sensitivity of strain PE110091; type: cell-based; settings: strain PE110091, pyrimethanil-tolerant
[7] = test system: Penicillium expansum strain PE110048; assay: Pyrimethanil sensitivity of strain PE110048; type: cell-based; settings: strain PE110048, pyrimethanil-resistant
[8] = test system: Penicillium expansum strain PE110030; assay: Pyrimethanil sensitivity of strain PE110030; type: cell-based; settings: strain PE110030, pyrimethanil-resistant
[9] = test system: Penicillium expansum strain PE110014; assay: Pyrimethanil sensitivity of strain PE110014; type: cell-based; settings: strain PE110014, pyrimethanil-resistant
[10] = hexanoic acid alone at 250, 500 and 750 ppm
[11] = pyrimethanil 10 ppm alone, two weeks
[12] = pyrimethanil 100 ppm alone (PENBOTEC 400SC)

CCCCCC(=O)O [hexanoic acid]
% growth (observed) ([1]; hexanoic acid 250 ppm alone): 100% | % growth (observed) ([1]; hexanoic acid 500 ppm alone): 100% | % growth (observed) ([1]; hexanoic acid 750 ppm alone): 100% | fungicidal effect (in words) [1, 10]: no fungicidal effect | fungicidal effect (in words) ([2]; PE110091 on apple, hexanoic acid alone at 2000 ppm): little fungicidal effect | % effect after 6 days (observed) ([2]; hexanoic acid 2000 ppm alone): 15% | % effect after 9 days (observed) ([2]; hexanoic acid 2000 ppm alone): 6% | % growth (observed) ([3]; hexanoic acid 250 ppm alone): 100% | % growth (observed) ([3]; hexanoic acid 500 ppm alone): 100% | % growth (observed) ([3]; hexanoic acid 750 ppm alone): 100% | fungicidal effect (in words) [3, 10]: no fungicidal effect | % growth (observed) ([4]; hexanoic acid 250 ppm alone): 100% | % growth (observed) ([4]; hexanoic acid 500 ppm alone): 100% | % growth (observed) ([4]; hexanoic acid 750 ppm alone): 100% | fungicidal effect (in words) [4, 10]: no fungicidal effect

Cc1cc(C)nc(Nc2ccccc2)n1 [pyrimethanil, 4,6-dimethyl-N-phenyl-2-pyrimidinamine]
EC50 [5]: 0.29 ppm | EC95 [5]: 0.88 ppm | % growth (observed) [1, 11]: 53% | % effect after 6 days (observed) [2, 12]: 19% | % effect after 9 days (observed) [2, 12]: 12% | EC50 [6]: 5.01 ppm | EC95 [6]: 74.99 ppm | EC50 [7]: 22.39 ppm | EC95 [7]: > 100 ppm | EC50 [8]: 16.38 ppm | EC95 [8]: > 100 ppm | % growth (observed) [3, 11]: 67% | EC50 [9]: 15.40 ppm | EC95 [9]: > 100 ppm | % growth (observed) [4, 11]: 80%
